Laboratory results as given in patent publication US4740601A, “Imidazole derivatives having antimicrobial activities” (SS Pharmaceutical Co., Ltd., priority 1985, dated 1988).
≈ marks a conversion by molar mass, not a printed value. Where two headings read alike, the source gives them in different places.

Legend:
Assay type in all cases: cell-based
[1] = test system: Trichophyton mentagrophytes QM 248; assay: antimicrobial activity, MIC
[2] = test system: Bacillus subtilis ATCC 6633; assay: antimicrobial activity, MIC
[3] = test system: Aspergillus oryzae IMF 4014; assay: antimicrobial activity, MIC
[4] = test system: Sarcina lutea ATCC 9341; assay: antimicrobial activity, MIC
[5] = test system: Saccharomyces ruxii 6507; assay: antimicrobial activity, MIC
[6] = test system: Microsporum gypseum IFO 8231; assay: antimicrobial activity, MIC
[7] = test system: Fusarium moniliforme IAM 5062; assay: antimicrobial activity, MIC
[8] = test system: Trichophyton mentagrophytes IFO 5812; assay: antimicrobial activity, MIC
[9] = test system: Streptococcus faecalis IFO 12964; assay: antimicrobial activity, MIC
[10] = test system: Penicillium chrysogenum ATCC 6010; assay: antimicrobial activity, MIC
[11] = test system: Cladosporium fulvum IAM 5006; assay: antimicrobial activity, MIC
[12] = test system: Pyricularia oryzae IAM 5016; assay: microbe, parasite or virus in culture
[13] = test system: Candida albicans NHL 4019; assay: antimicrobial activity, MIC
[14] = test system: Candida albicans Yu-1200; assay: antimicrobial activity, MIC
[15] = test system: Staphylococcus epidermidis ATCC 12228; assay: antimicrobial activity, MIC
[16] = test system: Staphylococcus aureus Smith; assay: antimicrobial activity, MIC
[17] = test system: Helminthosporium sesamum IAM 5012; assay: antimicrobial activity, MIC
[18] = test system: Staphylococcus aureus FDA 209P; assay: antimicrobial activity, MIC
[19] = test system: Micrococcus lysodeixticus IFO 3333; assay: antimicrobial activity, MIC
[20] = test system: Staphylococcus aureus Terajima; assay: antimicrobial activity, MIC
[21] = test system: Debaryomyces kloeckeri IFO 0015; assay: antimicrobial activity, MIC
[22] = test system: Saccharomyces cerevisiae ATCC 9763; assay: antimicrobial activity, MIC
[23] = test system: Trichophyton rubrum NHL J; assay: antimicrobial activity, MIC; settings: Trichophyton rubrum NHL J
[24] = test system: Microsporum cookei IFO 8303; assay: antimicrobial activity, MIC
[25] = test system: Trichophyton tonsurans IFO 5928; assay: antimicrobial activity, MIC
[26] = test system: Epidermophyton floccosum IFO 9045; assay: antimicrobial activity, MIC
[27] = test system: Gibberella fujikuroi IAM 8046; assay: antimicrobial activity, MIC
[28] = test system: Aspergillus niger ATCC 9642; assay: antimicrobial activity, MIC
[29] = test system: Microsporum audounii IFO 6074; assay: antimicrobial activity, MIC
[30] = Trichophyton mentagrophytes QM 248
[31] = Nannizzia gypsea, IFO8231, Microsporum gypseum IFO 8231, read-out: MIC
[32] = Fusarium verticillioides, IAM5062, Fusarium moniliforme IAM 5062, read-out: MIC
[33] = Trichophyton mentagrophytes IFO 5812
[34] = Enterococcus faecalis, IFO12964, Streptococcus faecalis IFO 12964, read-out: MIC
[35] = Penicillium chrysogenum ATCC 6010
[36] = Fulvia fulva, IAM5006, Cladosporium fulvum IAM 5006, read-out: MIC
[37] = Candida albicans, NHL4019, Candida albicans NHL 4019, read-out: MIC
[38] = Staphylococcus epidermidis, ATCC12228, Staphylococcus epidermidis ATCC 12228, read-out: MIC
[39] = Staphylococcus aureus, read-out: MIC
[40] = Helminthosporium sesamum IAM 5012
[41] = Staphylococcus aureus, FDA209P, read-out: MIC
[42] = Saccharomyces cerevisiae, ATCC9763, Saccharomyces cerevisiae ATCC 9763, read-out: MIC
[43] = Trichophyton tonsurans IFO 5928
[44] = Epidermophyton floccosum IFO 9045
[45] = Trichophyton mentagrophytes, QM248, Trichophyton mentagrophytes QM 248, read-out: MIC
[46] = Saccharomyces ruxii 6507, read-out: MIC
[47] = Trichophyton mentagrophytes, IFO5812, Trichophyton mentagrophytes IFO 5812, read-out: MIC
[48] = Pyricularia oryzae, IAM5016, Pyricularia oryzae IAM 5016
[49] = Helminthosporium, IAM5012, Helminthosporium sesamum IAM 5012, read-out: MIC
[50] = Trichophyton rubrum, read-out: MIC
[51] = Trichophyton tonsurans, IFO5928, Trichophyton tonsurans IFO 5928, read-out: MIC
[52] = Epidermophyton floccosum, IFO9045, Epidermophyton floccosum IFO 9045, read-out: MIC
[53] = Microsporum, IFO6074, Microsporum audounii IFO 6074, read-out: MIC
[54] = Staphylococcus epidermidis ATCC 12228
[55] = Micrococcus lysodeixticus IFO 3333

SMILES | MIC [1, 30] [µg/mL] | MIC ([2]; Bacillus subtilis ATCC 6633) [µg/mL] | MIC ([3]; Aspergillus oryzae IMF 4014) [µg/mL] | MIC ([4]; Sarcina lutea ATCC 9341) [µg/mL] | MIC [6, 31] [µg/mL] | MIC [7, 32] [µg/mL] | MIC [9, 34] [µg/mL] | MIC [10, 35] [µg/mL] | MIC [11, 36] [µg/mL] | MIC [13, 37] [µg/mL] | MIC ([14]; YU1200, read-out: MIC) [µg/mL] | MIC [16, 39] [µg/mL] | MIC [18, 41] [µg/mL] | MIC [20, 39] [µg/mL] | MIC ([21]; IFO0015, read-out: MIC) [µg/mL] | MIC [22, 42] [µg/mL] | MIC ([24]; Microsporum cookei IFO 8303) [µg/mL] | MIC ([27]; Gibberella fujikuroi IAM 8046) [µg/mL] | MIC ([28]; Aspergillus niger ATCC 9642) [µg/mL] | MIC [5, 46] [µg/mL] | further results
CCCOc1ccccc1C(=CSc1ccccc1)n1ccnc1 (single isomer, unassigned) [Compound 64] | 0.78 (≈ 2.32 µM) | 6.25 (≈ 18.6 µM) | 6.25 (≈ 18.6 µM) | 6.25 (≈ 18.6 µM) | 6.25 (≈ 18.6 µM) | 50 (≈ 149 µM) | 25 (≈ 74.3 µM) | 12.5 (≈ 37.2 µM) | > 100 | > 100 | > 100 | 12.5 (≈ 37.2 µM) | 25 (≈ 74.3 µM) | 6.25 (≈ 18.6 µM) | > 100 | 50 (≈ 149 µM) | 12.5 (≈ 37.2 µM) | 25 (≈ 74.3 µM) | 12.5 (≈ 37.2 µM) |  | MIC ([5]; Saccharomyces, 6507, Saccharomyces ruxii 6507): 1.56 µg/mL (≈ 4.64 µM); MIC [8, 33]: < 0.2 µg/mL; MIC ([12]; Pyricularia oryzae IAM 5016): < 0.2 µg/mL; MIC [15, 38]: 6.25 µg/mL (≈ 18.6 µM); MIC [17, 40]: 6.25 µg/mL (≈ 18.6 µM); MIC ([19]; Micrococcus, IFO3333): 1.56 µg/mL (≈ 4.64 µM); MIC [23]: < 0.2 µg/mL; MIC [25, 43]: 3.12 µg/mL (≈ 9.27 µM); MIC [26, 44]: 6.25 µg/mL (≈ 18.6 µM); MIC ([29]; Microsporum audounii IFO 6074): < 0.2 µg/mL
CCCCCSC=C(c1ccccc1OCC)n1ccnc1 (single isomer, unassigned) [Compound 49] |  |  |  |  | < 0.2 | 1.56 (≈ 4.93 µM) | 6.25 (≈ 19.7 µM) |  | 25 (≈ 79 µM) | 25 (≈ 79 µM) | 25 (≈ 79 µM) | 12.5 (≈ 39.5 µM) | 12.5 (≈ 39.5 µM) | 6.25 (≈ 19.7 µM) | 12.5 (≈ 39.5 µM) | 50 (≈ 158 µM) |  |  |  | < 0.2 | MIC [1, 45]: < 0.2 µg/mL; MIC ([2]; Bacillus subtilis, ATCC6633, Bacillus subtilis ATCC 6633, read-out: MIC): 3.12 µg/mL (≈ 9.86 µM); MIC ([3]; Aspergillus oryzae, IMF4014, Aspergillus oryzae IMF 4014, read-out: MIC): 0.78 µg/mL (≈ 2.46 µM); MIC ([4]; Micrococcus luteus, ATCC9341, Sarcina lutea ATCC 9341, read-out: MIC): 3.12 µg/mL (≈ 9.86 µM); MIC [8, 47]: < 0.2 µg/mL; MIC ([10]; Penicillium chrysogenum, ATCC6010, Penicillium chrysogenum ATCC 6010, read-out: MIC): 6.25 µg/mL (≈ 19.7 µM); MIC [12, 48]: < 0.2 µg/mL; MIC [15, 38]: 3.12 µg/mL (≈ 9.86 µM); MIC [17, 49]: 0.39 µg/mL (≈ 1.23 µM); MIC ([19]; Micrococcus, IFO3333, Micrococcus lysodeixticus IFO 3333, read-out: MIC): 1.56 µg/mL (≈ 4.93 µM); MIC [23, 50]: < 0.2 µg/mL; MIC ([24]; Paraphyton cookei, IFO8303, Microsporum cookei IFO 8303, read-out: MIC): 1.56 µg/mL (≈ 4.93 µM); MIC [25, 51]: < 0.2 µg/mL; MIC [26, 52]: 0.78 µg/mL (≈ 2.46 µM); MIC ([27]; Fusarium fujikuroi, IAM8046, Gibberella fujikuroi IAM 8046, read-out: MIC): 0.39 µg/mL (≈ 1.23 µM); MIC ([28]; Aspergillus niger, ATCC9642, Aspergillus niger ATCC 9642, read-out: MIC): < 0.2 µg/mL; MIC [29, 53]: < 0.2 µg/mL
CCCOc1ccccc1C(=CSc1ccccc1)n1ccnc1 (single isomer, unassigned) [Compound 65] | 12.5 (≈ 37.2 µM) | 3.12 (≈ 9.27 µM) | > 100 | 3.12 (≈ 9.27 µM) |  |  |  | > 100 |  |  |  |  |  |  |  |  | 100 (≈ 297 µM) | > 100 | > 100 | 6.25 (≈ 18.6 µM) | MIC ([6]; Microsporum gypseum IFO 8231): 12.5 µg/mL (≈ 37.2 µM); MIC ([7]; Fusarium moniliforme IAM 5062): > 100 µg/mL; MIC [8, 33]: 3.12 µg/mL (≈ 9.27 µM); MIC ([9]; Streptococcus faecalis IFO 12964): 12.5 µg/mL (≈ 37.2 µM); MIC ([11]; Cladosporium fulvum IAM 5006): > 100 µg/mL; MIC ([12]; Pyricularia oryzae IAM 5016): 1.56 µg/mL (≈ 4.64 µM); MIC ([13]; Candida albicans NHL 4019): > 100 µg/mL; MIC [14]: > 100 µg/mL; MIC [15, 54]: 6.25 µg/mL (≈ 18.6 µM); MIC [16]: 6.25 µg/mL (≈ 18.6 µM); MIC [17, 40]: 100 µg/mL (≈ 297 µM); MIC [18]: 12.5 µg/mL (≈ 37.2 µM); MIC [19, 55]: 1.56 µg/mL (≈ 4.64 µM); MIC [20]: 6.25 µg/mL (≈ 18.6 µM); MIC [21]: > 100 µg/mL; MIC ([22]; Saccharomyces cerevisiae ATCC 9763): 25 µg/mL (≈ 74.3 µM); MIC [23]: 3.12 µg/mL (≈ 9.27 µM); MIC [25, 43]: 12.5 µg/mL (≈ 37.2 µM); MIC [26, 44]: 100 µg/mL (≈ 297 µM); MIC ([29]; Microsporum audounii IFO 6074): 6.25 µg/mL (≈ 18.6 µM)
CCCOc1ccccc1C(=CSCc1ccccc1)n1ccnc1 (single isomer, unassigned) [Compound 3, 1-(2-n-propyloxyphenyl)-1-imidazolyl-2-benzylthioethylene] |  | 1.56 (≈ 4.45 µM) | 6.25 (≈ 17.8 µM) | 1.56 (≈ 4.45 µM) | < 0.2 |  | 6.25 (≈ 17.8 µM) | 50 (≈ 143 µM) | 12.5 (≈ 35.7 µM) | 50 (≈ 143 µM) | > 100 | 6.25 (≈ 17.8 µM) | 12.5 (≈ 35.7 µM) | 6.25 (≈ 17.8 µM) | 6.25 (≈ 17.8 µM) | < 0.2 | 6.25 (≈ 17.8 µM) | 25 (≈ 71.3 µM) | 0.39 (≈ 1.11 µM) | < 0.2 | MIC [1, 45]: < 0.2 µg/mL; MIC ([7]; Fusarium moniliforme IAM 5062): > 100 µg/mL; MIC [8, 47]: < 0.2 µg/mL; MIC [12, 48]: < 0.2 µg/mL; MIC [15, 54]: 3.12 µg/mL (≈ 8.9 µM); MIC [17, 49]: < 0.2 µg/mL; MIC [19, 55]: 0.78 µg/mL (≈ 2.23 µM); MIC [23, 50]: < 0.2 µg/mL; MIC [25, 51]: < 0.2 µg/mL; MIC [26, 52]: 3.12 µg/mL (≈ 8.9 µM); MIC [29, 53]: < 0.2 µg/mL
